# Results reported in patent publication US20160208246A1, “COMPOSITIONS AND METHODS FOR TREATING A HEMATOLOGICAL MALIGNANCY ASSOCIATED WITH AN ALTERED RUNX1 ACTIVITY OR EXPRESSION” (YEDA RESEARCH AND DEVELOPMENT CO. LTD., priority 2013, published 2016).
# Residues, ends and D or L forms follow the SMILES beside them. *: point of attachment. Cbz = O=C(OCc1ccccc1)*; CH2F = FC*
# Key:
# [1] = test system: RUNX1; assay: siRNA-mediated RUNX1 KD in Kasumi-1 cells (RT-qPCR, Western blotting); format: cell-based, human; conditions: Western blot, 50 μM, 24 hrs after 72 hrs siRNA
# Text: FIG. 1A, upper panel, is a schematic illustration of RUNX1 (blue) and RUNX1-ETO (A-E) (blue-red) transcripts indicating regions targeted by the siRNAs used to knock down (KD) expression of either RUNX1 (bars underneath RUNX1 marked in green and orange) or A-E (black bar underneath A-E fusion region). […] NO: 49) (as marked in green in the upper panel). Total RNA isolated 24 hrs post electroporation of RUNX1-targeting or non-targeting (NT) control siRNA. Data shown represent mean expression±SE. Shown are results from one of three experiments with the same findings. Primers used for RT-qPCR are presented in Table 1 (in the Examples section which follows). […] Blots were reacted with an antibody (Ab) against RUNX1-N-terminus or Lamin. Results from one of two experiments with the same findings are shown. […] KD efficiency was assessed both by RT-qPCR and immunoblotting. […] Cells were collected, washed once in PBS, and nuclear proteins were extracted and analyzed by Western blotting as previously described [Aziz-Aloya, R. et al., Cell Death (1998) 5, 765-773]. […] Quantitation of cDNAs was performed by qPCR using Roche LC480 LightCycler with sequence-specific primers (Table 1, below) and miScript SYBR Green PCR kit (QIAGEN). Target transcript quantification was calculated relative to ACTB mRNA, which served as an internal control. Standard errors were calculated using REST.
# [2] = test system: Kasumi-1 cells; assay: Cell cycle analysis (Propidium iodide, FACS); format: cell-based, human; conditions: 50 μM, 24 hrs, three days post siRNA-delivery
# Text: FIGS. 1B and 1C illustrate cell cycle analysis 8 days post transfection with either RUNX1-targeting (SEQ ID NO: 52) or control non-targeting (NT) siRNA. FIG. 1B illustrates cells which were subjected to two successive transfections (at days 0 and 4) with either RUNX1-targeting or NT siRNA. Propidium iodide (PI) was used to assess cellular DNA content by FACS analysis. Bar numbers indicate the relative size (in %) of labeled population out of total cells. Indicated cell cycle phases: subG1; G1; S and G2M; and FIG. 1C are histograms summarizing the distribution of cell population as analyzed in FIG. 1B. Data represents mean±STDV values of five independent experiments.
# FIG. 1H illustrates that caspase inhibition rescues Kasumi-1^RX1-KD from apoptosis. […] Histograms show the distribution of cells among cell cycle phases determined as detailed above. […]
# FIGS. 2C-2G illustrate that KD of A-E rescues Kasumi-1 cells from RUNX1 KD-induced apoptosis. […] FIGS. 2C-2F, following incubation for 8 days, cells were stained with PI and analyzed by FACS for cell cycle; and FIG. 2G are histograms showing the distribution of cells among cell cycle phases. […]
# For cell cycle analysis, cells were stained with Propidium iodide (Sigma-Aldrich) according to standard procedure. […] All data were collected using LSRII flow cytometer (BD Biosciences) and analyzed by FlowJo software.
smiles,measurement,setting,value
COC(=O)C[C@H](NC(=O)[C@H](C)NC(=O)[C@@H](NC(=O)OCc1ccccc1)C(C)C)C(=O)CF [Z-VAD-FMK] (Cbz-Val-Ala-Asp(OMe)-CH2F),RUNX1 protein levels in Kasumi-1^RX1-KD cells,[1],further reduced
same,apoptosis in Kasumi-1^RX1-KD cells,[2],completely blocked apoptosis
same,subG1 fraction of Kasumi-1^RX1-KD cells,[2],profound decrease
